The values that follow are results of earlier work, collected in US6440956B1, “Bicyclic polyaminoacid metal complexes, their process of preparation and their application in medical imaging” (Guerbet, priority 1999, dated 2002).

For the data set the following is noted: ratio to commercial gadolinium chelates; from Inorganic Chemistry 36(14) 2992-3000 (1997) and Magn. Reson. Chem. 36, S200-208 (1998).

As to `O=C([O-])CN1CCN(CC(=O)[O-])Cc2cccc(n2)CN(CC(=O)[O-])CC1.[Gd+3]` [PCTA], the “longitudinal relaxation r1 relative to that of the gadolinium chelates used as contrast agents in magnetic resonance imaging in man” value is ~2 times.
